This note sets out measurements from US10758534B2 (Vertex Pharmaceuticals Incorporated, priority 2014, dated 2020).

The term EC30 denotes the concentration at which the effect reaches the 30% level.

Each structure is given as a SMILES string. Where two headings read alike, the source gives them in different places. Where only a bound is given, the exact number is not on record here.

The test concerns the target T1, F508del (Homo sapiens, UniProt P13569, DEL508-508).
T1 construct: expressed in transfected cells
Description: Protocol 2: FRET membrane potential optical assay (VIPR), identification of correction compounds. The test is classed as cell-based. In a few lines:
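NIH3T3 mouse fibroblasts stably expressing F508del were treated with test compound for 16 hrs at 37° C. in serum-free medium; 27° C. incubation served as positive control. F508del was activated with 10 μM forskolin plus 20 μM genistein in Cl^−-free medium, and Cl^− efflux-driven depolarization was read by DiSBAC2(3)/CC2-DMPE FRET.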

Where [1] appears, read: F508del CFTR modulator activity, compounds of Table 1, read-out: EC30.
Where [2] appears, read: Table 3, compounds of Table 1 as modulators of CFTR activity, protocol not stated.

T1 sequence (P13569 with tags, fused parts or gaps DEL508-508): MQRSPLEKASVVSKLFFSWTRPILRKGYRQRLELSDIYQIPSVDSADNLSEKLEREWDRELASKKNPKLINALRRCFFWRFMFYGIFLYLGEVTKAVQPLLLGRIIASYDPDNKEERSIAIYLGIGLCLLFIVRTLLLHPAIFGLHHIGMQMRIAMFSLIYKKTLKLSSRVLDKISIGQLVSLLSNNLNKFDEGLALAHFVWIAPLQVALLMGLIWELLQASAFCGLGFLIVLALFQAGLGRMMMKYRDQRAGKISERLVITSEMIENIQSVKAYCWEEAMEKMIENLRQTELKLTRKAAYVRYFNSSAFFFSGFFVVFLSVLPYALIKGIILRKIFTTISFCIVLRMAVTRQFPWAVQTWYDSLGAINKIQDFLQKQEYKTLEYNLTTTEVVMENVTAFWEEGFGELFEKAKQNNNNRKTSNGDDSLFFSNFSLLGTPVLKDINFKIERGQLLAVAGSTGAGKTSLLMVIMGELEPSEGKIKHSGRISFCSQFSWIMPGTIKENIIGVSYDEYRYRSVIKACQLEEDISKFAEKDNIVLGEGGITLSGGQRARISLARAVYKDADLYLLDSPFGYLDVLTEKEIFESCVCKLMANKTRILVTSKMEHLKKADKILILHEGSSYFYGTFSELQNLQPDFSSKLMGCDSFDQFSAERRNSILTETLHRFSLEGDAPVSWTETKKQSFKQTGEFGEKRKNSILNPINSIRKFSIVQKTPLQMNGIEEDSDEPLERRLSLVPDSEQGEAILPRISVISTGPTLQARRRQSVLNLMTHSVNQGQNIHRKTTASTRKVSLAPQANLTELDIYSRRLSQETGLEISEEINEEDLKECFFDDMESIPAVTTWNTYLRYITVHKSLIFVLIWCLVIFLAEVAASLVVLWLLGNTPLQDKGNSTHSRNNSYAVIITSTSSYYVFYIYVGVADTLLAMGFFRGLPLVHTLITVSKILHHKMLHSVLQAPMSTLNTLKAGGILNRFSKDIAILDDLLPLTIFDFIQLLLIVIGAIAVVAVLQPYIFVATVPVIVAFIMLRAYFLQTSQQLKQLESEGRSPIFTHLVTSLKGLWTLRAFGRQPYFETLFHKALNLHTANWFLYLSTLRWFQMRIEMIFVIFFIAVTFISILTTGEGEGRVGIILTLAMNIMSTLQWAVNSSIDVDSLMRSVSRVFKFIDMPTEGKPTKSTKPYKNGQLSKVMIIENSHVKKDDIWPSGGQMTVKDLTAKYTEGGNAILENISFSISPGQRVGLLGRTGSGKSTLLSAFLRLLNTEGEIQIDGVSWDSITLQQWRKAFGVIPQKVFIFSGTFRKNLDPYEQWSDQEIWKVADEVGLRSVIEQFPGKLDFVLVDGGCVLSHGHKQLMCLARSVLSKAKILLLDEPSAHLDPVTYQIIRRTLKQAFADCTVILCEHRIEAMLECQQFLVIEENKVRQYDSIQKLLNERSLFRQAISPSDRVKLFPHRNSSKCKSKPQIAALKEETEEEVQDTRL

For `COc1cccc(F)c1-c1ccc(C(=O)NS(=O)(=O)c2ccc[nH]c2=O)c(N2C[C@@H](C)CC2(C)C)n1` [Compound 2422, 6-(2-fluoro-6-methoxy-phenyl)-N-[(2-oxo-1H-pyridin-3-yl)sulfonyl]-2-[(4S)-2,2,4-trimethylpyrrolidin-1-yl]pyridine-3-carboxamide], under setting [1], the 30% effect concentration (EC30) lay within 3000 to 10000 nM. As to `COc1ncccc1S(=O)(=O)NC(=O)c1cc2c(nc1Oc1c(C)cc(C)cc1C)C(C)(C)CCC2` [Compound 423, N-[(2-methoxy-3-pyridyl)sulfonyl]-8,8-dimethyl-2-(2,4,6-trimethylphenoxy)-6,7-dihydro-5H-quinoline-3-carboxamide], the EC30 result under setting [2] was “+++ (“+++” means <3 uM)”. For `COc1ccc(-c2ccc(C(=O)NS(=O)(=O)c3ccc[nH]c3=O)c(N3C[C@@H](C)CC3(C)C)n2)c(C)c1` [Compound 2469, 6-(4-methoxy-2-methyl-phenyl)-N-[(2-oxo-1H-pyridin-3-yl)sulfonyl]-2-[(4S)-2,2,4-trimethylpyrrolidin-1-yl]pyridine-3-carboxamide], the 30% effect concentration (EC30) under setting [1] was 3000 to 10000 nM.

For the compound `COc1ccc(OC)c(CNc2cccc(S(=O)(=O)NC(=O)c3cccnc3N3CC(C)CC3(C)C)n2)c1` (stereo not drawn) [Compound 2722], the EC30 under setting [1] was below 3000 nM.

Turning to `Cc1cccc(C)c1Cn1nc(-c2cccc(OC(F)(F)F)c2)cc1C(=O)NS(=O)(=O)c1ccccc1` [Compound 225, N-(benzenesulfonyl)-2-[(2,6-dimethylphenyl)methyl]-5-[3-(trifluoromethoxy)phenyl]pyrazole-3-carboxamide], the EC30 result under setting [2] is on record as “+++ (“+++” means <3 uM)”.

With `COc1ncc(-c2ccc(C(=O)NS(=O)(=O)c3cccnc3N)c(N3C[C@@H](C)CC3(C)C)n2)cc1F` [Compound 2628, N-[(2-amino-3-pyridyl)sulfonyl]-6-(5-fluoro-6-methoxy-3-pyridyl)-2-[(4S)-2,2,4-trimethylpyrrolidin-1-yl]pyridine-3-carboxamide], under setting [1], the 30% effect concentration (EC30) was below 3000 nM. On to `Cc1cccc(-c2ccc(C(=O)NS(=O)(=O)c3ccc[nH]c3=O)c(N3C[C@@H](C)CC3(C)C)n2)c1O` [Compound 2300, 6-(2-hydroxy-3-methyl-phenyl)-N-[(2-oxo-1H-pyridin-3-yl)sulfonyl]-2-[(4S)-2,2,4-trimethylpyrrolidin-1-yl]pyridine-3-carboxamide], for which, under setting [1], the concentration for an effect of 30% (EC30) lay within 3000 to 10000 nM.

As for `CC1CN(c2ncccc2C(=O)NS(=O)(=O)c2cccc(OCC3CCOCC3)n2)C(C)(C)C1` (stereo not drawn) [Compound 2032, N—[[6-(tetrahydropyran-4-ylmethoxy)-2-pyridyl]sulfonyl]-2-(2,2,4-trimethylpyrrolidin-1-yl)pyridine-3-carboxamide], the EC30 under setting [1] is 3000 to 10000 nM. As to `CC1CN(c2ncccc2C(=O)NS(=O)(=O)c2cccc(N3CCC(C(F)(F)F)CC3)n2)C(C)(C)C1` (stereo not drawn) [Compound 2641, N—[[6-[4-(trifluoromethyl)-1-piperidyl]-2-pyridyl]sulfonyl]-2-(2,2,4-trimethylpyrrolidin-1-yl)pyridine-3-carboxamide], under setting [1], the EC30 is below 3000 nM. On to `CC(C)COc1cc(F)cc(-c2ccc(C(=O)NS(=O)(=O)c3ccn[nH]3)c(N3C[C@H](C)C[C@H](C)C3)n2)c1` [Compound 642, 2-[(3R,5S)-3,5-dimethyl-1-piperidyl]-6-(3-fluoro-5-isobutoxy-phenyl)-N-(1H-pyrazol-5-ylsulfonyl)pyridine-3-carboxamide], for which the EC30 entry under setting [2] is “+++ (“+++” means <3 uM)”. On to `COc1cccc(-c2ccc(C(=O)NS(=O)(=O)c3cccnc3N)c(N3C[C@@H](C)CC3(C)C)n2)c1F` [Compound 2562, N-[(2-amino-3-pyridyl)sulfonyl]-6-(2-fluoro-3-methoxy-phenyl)-2-[(4S)-2,2,4-trimethylpyrrolidin-1-yl]pyridine-3-carboxamide], for which the EC30 under setting [1] was below 3000 nM. With `CC1CN(c2ncccc2C(=O)NS(=O)(=O)c2cccc(N3CCCC3c3ccccc3)n2)C(C)(C)C1` (stereo not drawn) [Compound 2094, N—[[6-(2-phenylpyrrolidin-1-yl)-2-pyridyl]sulfonyl]-2-(2,2,4-trimethylpyrrolidin-1-yl)pyridine-3-carboxamide], under setting [1], the EC30 is below 3000 nM.
